Measurements as given in paper PMC7288138, “Development of Novel Analogs of the Monocarboxylate Transporter Ligand FACH and Biological Validation of One Potential Radiotracer for Positron Emission Tomography (PET) Imaging” (Molecules, 2020).

Target: T1, MCT1 (monocarboxylate transporter 1) (Rattus norvegicus, UniProt P53987)
T1 construct: gene Slc16a1
T1 sequence (P53987 1-494): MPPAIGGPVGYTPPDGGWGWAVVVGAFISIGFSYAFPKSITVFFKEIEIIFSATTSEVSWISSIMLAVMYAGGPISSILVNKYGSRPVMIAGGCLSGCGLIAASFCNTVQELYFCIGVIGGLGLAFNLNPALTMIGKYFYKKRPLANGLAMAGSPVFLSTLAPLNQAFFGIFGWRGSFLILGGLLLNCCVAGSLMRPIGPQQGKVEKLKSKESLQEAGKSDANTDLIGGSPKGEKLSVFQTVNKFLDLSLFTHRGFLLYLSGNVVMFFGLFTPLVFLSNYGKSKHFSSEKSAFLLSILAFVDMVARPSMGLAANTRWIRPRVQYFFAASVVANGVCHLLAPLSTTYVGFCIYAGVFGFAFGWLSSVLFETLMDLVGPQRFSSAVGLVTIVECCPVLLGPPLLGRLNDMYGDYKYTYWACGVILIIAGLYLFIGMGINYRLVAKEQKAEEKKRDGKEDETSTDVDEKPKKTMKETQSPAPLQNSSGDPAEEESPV
Assay: […]lactate uptake inhibition in RBE4 rat brain endothelial cells (only MCT1 isoform expressed)
Assay type: cell-based

IC50 | SMILES
118 nM | CCCN(c1ccc(/C=C(\C#N)C(=O)O)c(OC)c1)c1cccc(F)n1 [compound 1, (E)-2-Cyano-3-(4-((6-fluoropyridin-2-yl)(propyl)amino)-2-methoxyphenyl)acrylic Acid]
274 nM | COc1cc(N(c2ccccc2)c2cccc(F)n2)ccc1/C=C(\C#N)C(=O)O [compound 2, (E)-2-Cyano-3-(4-((6-fluoropyridin-2-yl)(phenyl)amino)-2-methoxyphenyl)acrylic Acid]
